Measurements: patent US5260276A, “Linear and monocyclic endothelin antagonists” (Warner-Lambert Company, priority 1991, dated 1993)
Where a SMILES comes first, the peptide text is derived from it. Bridges are numbered along the chain shown (N, C = ends). Where no end group is shown, it is not given here. [ ]: non-standard residue; d: D form. Ava = NCCCCC(=O)O

Legend:
[1] = biological target: endothelin receptor ([125I]-ET-1 binding), rat heart ventricle; test: Inhibition of [125I]-ET-1 binding in a receptor assay, rat heart ventricle; settings: [125I]-ET-1, rat heart ventricle 10 μg, 37° C., 2 hours
Description: The compounds of Formula I are valuable antagonists of endothelin. […] Thus, the compounds of Formula I were tested for their ability to inhibit [^125 I]-ET-1([^125 I]-Endothelin-1) binding in a receptor assay. The binding of the compounds of Formula I is determined by incubation (37° C., 2 hours) of a compound of Formula I with [^125 I]-ET-1 and the tissue (rat heart ventricle (10 μg)) in 50 mM Tris(hydroxymethyl)aminomethane hydrochloride (Tris-HCl) (pH 7.4), 5 mM ethylenediamine tetraacetic acid (EDTA), 2 mM ethylene glycol bis(β-aminoethyl ether)N,N,N',N'-tetraacetic acid (EGTA), 100 μM phenylmethylsulfonyl fluoride (PMSF), and 100 μM bacitracin containing protease inhibitors (total volume of 0.5 mL). IC50 values are calculated by weighing nonlinear regression curve-fitting to the mass-action (Langmuir) equation. The functional activity of compounds of Formula I is determined in Rat-1 cells by measuring intracellular levels of second messengers. Thus, cells are prelabeled with [^3 H]-inositol and endothelin-stimulated accumulation of total [^3 H]-inositol phosphates in the presence of Li^+ is monitored using anion exchange chromatography as described by Muldoon, L. L., et al, Journal of Biological Chemistry, Volume 264, pages 8529-8536 (1989) and Dudley, D. T., et al, Molecular Pharmacology, Volume 38, pages 370-377 (1990). Antagonist activity is assessed as the ability of added compounds to reduce endothelin stimulated inositol phosphate accumulation. The data in the table show the endothelin antagonist activity of representative compounds of Formula I.

[2] = tested on: ET receptor, selected tissues; settings: relative to ET-1; cited from earlier work

Row | IC50 [1] [nM] | Compound | fold less functional activity [2]
1 | 1800 | CC[C@H](C)[C@H](NC(=O)[C@H](CC(=O)O)NC(=O)[C@H](CC(C)C)NC(=O)[C@H](Cc1c[nH]cn1)NC(=O)[C@@H]1CSSC[C@H](N)C(=O)N[C@@H](CO)C(=O)NCCCCC(=O)N[C@@H](C(C)C)C(=O)N[C@@H](Cc2ccc(O)cc2)C(=O)N[C@@H](Cc2ccccc2)C(=O)N1)C(=O)N[C@H](C(=O)N[C@@H](Cc1c[nH]c2ccccc12)C(=O)O)[C@@H](C)CC [Example 5] (H-CS[Ava]VYFCHLDIIW-OH; disulfide 1-7; N-terminus and C-terminus assumed) | 
2 |  | ET[1-20]: endothelin-1 fragment 1-20, lacking the C-terminal amino acid Trp-21 (CSCSSLMDKECVYFCHLDII; ends and bridges not checked; cysteine pairing not given here; UniProt P05305 53-72, looked up, fragment) | approximately 1000 fold
3 | 2600 | CC[C@@H](C)[C@@H](NC(=O)[C@@H](NC(=O)[C@H](CC(=O)O)NC(=O)[C@H](CC(C)C)NC(=O)[C@H](Cc1c[nH]cn1)NC(=O)[C@@H]1CSSC[C@H](N)C(=O)N[C@@H](CO)C(=O)N[C@@H](CO)C(=O)N[C@@H](CO)C(=O)N[C@@H](C(C)C)C(=O)N[C@@H](Cc2ccc(O)cc2)C(=O)N[C@@H](Cc2ccccc2)C(=O)N1)[C@@H](C)CC)C(=O)N[C@@H](Cc1c[nH]c2ccccc12)C(=O)O [Example 14] (H-CSSSVYFCHLDI[dI]W-OH; disulfide 1-8; N-terminus assumed) | 
4 | 3200 | CC[C@H](C)[C@H](NC(=O)[C@H](CC(=O)O)NC(=O)[C@H](CC(C)C)NC(=O)[C@H](Cc1c[nH]cn1)NC(=O)[C@@H]1CSSC[C@H](N)C(=O)N[C@@H](CO)C(=O)N[C@@H](CC(=O)O)C(=O)N[C@@H](CC(C)C)C(=O)N[C@@H](CCC(=O)O)C(=O)N[C@@H](C(C)C)C(=O)N[C@@H](Cc2ccc(O)cc2)C(=O)N[C@@H](Cc2ccccc2)C(=O)N1)C(=O)N[C@H](C(=O)N[C@@H](Cc1c[nH]c2ccccc12)C(=O)O)[C@@H](C)CC [Example 10] (H-CSDLEVYFCHLDIIW-OH; disulfide 1-9) | 
